# Experimental data published in patent US7351744B2, “Naphthalene derivatives as termite repellents and toxicants” (Board of Supervisors of Louisiana State University and …, priority 2003, dated 2008).
# Assays:
# [1] = Longevity and volatility of the eleven chemicals; assay type: physicochemical; conditions: among the eleven chemicals tested
# [2] = tested on: termites; assay: Naphthalene-related compounds, choice of treated or untreated food or sand; assay type: in vivo; conditions: no repellency up to this concentration; data not shown
# Protocol: When termites were given a choice of treated or untreated food or sand, all four chemicals were repellents at concentrations of 40 μg/cm^2 treated filter paper or 100 mg/kg treated sand. […] Methoxynaphthalenes were more volatile than acetonaphthones and could spread more effectively into the untreated chambers. […] (Data not shown)
# [3] = tested on: Formosan subterranean termites; conditions: other tested naturally occurring compounds; cited from earlier work
smiles,measurement,setting,value
CC(=O)c1cccc2ccccc12 [1′-acetonaphthone],longevity,[1],highest longevity
same,volatility,[1],lowest volatility
"c1ccc2ccccc2c1 [Napthalene, naphthalene]",concentration showing repellency,[2],> 500 μg/cm^2
C/C=C(\C)C(=O)O[C@H]1C[C@@H](OC(C)=O)[C@@]2(C(=O)OC)CO[C@H]3[C@@H](O)[C@@](C)([C@]45O[C@@]4(C)[C@H]4C[C@@H]5O[C@@H]5OC=C[C@@]54O)[C@H]4[C@]1(CO[C@]4(O)C(=O)OC)[C@@H]32 [azadirachtin],concentration inhibiting tunneling and feeding behaviors,[3],500 mg/kg
C=C(C)[C@@H]1CCC2=CC(=O)C[C@@H](C)[C@]2(C)C1 [nootkatone],concentration inhibiting tunneling and feeding behaviors,[3],100 mg/kg
